{"source": "patent US20210128547A1", "about": "“AGGRESSIVE LIPID LOWERING THERAPY IN CORONARY ARTERY DISEASE” (priority 2018, published 2021)", "key": {"[1]": {"conditions": "4 mg of pitavastatin; cited from earlier work"}, "patients with stable CAD": {"test_system": "patients with stable CAD", "assay": "Randomized open-label blinded-endpoint phase 4 trial, pitavastatin 4 mg/day vs 1 mg/day (Example 1)", "type": "in vivo, human (Japanese patients)", "experimental": "This study was a prospective, multicenter, randomized, open-label, blinded-endpoint, physician-initiated phase 4 trial designed to investigate whether high-dose statin therapy could reduce CV events in patients with stable CAD as compared with low-dose statin therapy. We hypothesized that aggressive lipid lowering treatment with pitavastatin 4 mg/day would reduce the incidence of the composite endpoint comprised of CV death, non-fatal myocardial infarction (MI), non-fatal ischemic stroke, and unstable angina requiring emergency hospitalization. The control group received pitavastatin 1 mg/day.\nMen and women aged 20 to 80 years with clinically evident stable CAD and elevated LDL-C were eligible for this study. CAD was defined as 1) previous ACS, such as acute myocardial infarction or unstable angina; 2) a previous coronary revascularization procedure (PCI or coronary artery bypass grafting (“CABG”)); or 3) atherosclerotic CAD detected by coronary artery angiography with at least 75% stenosis in major epicardial coronary arteries (American Heart Association classification). (30) Patients with elevated LDL-C at entry were defined as (1) patients not receiving chronic lipid-lowering therapy with LDL-C≥140 mg/dL, (2) patients with LDL-C≥100 mg/dL and considered by the attending physician to need lipid-lowering therapy, or (3) patients being treated with lipid-lowering therapy.\nExclusion criteria included (1) any planned coronary revascularization procedure, (2) active malignancy, (3) contraindication for pitavastatin (hypersensitivity to pitavastatin, severe liver disease or hepatic dysfunction, concurrent cyclosporine use, or suspected or confirmed pregnancy or current breastfeeding), (4) severe congestive heart failure (ejection fraction <30% or NYHA class ≥3), (5) current hemodialysis, (6) familial hypercholesterolemia, (7) current participation in another clinical trial, (8) current use of any prohibited drug (lipid-lowering drug other than pitavastatin) that could not be discontinued during the study, and (9) any other finding that would make the patient unsuitable for this study in the opinion of the investigators.\nParticipants were recruited at 733 hospitals in Japan. During screening visits, informed consent and baseline medical history were obtained, and a clinical examination and laboratory testing were performed. Blood samples were collected to determine fasting lipid levels and the patient's standard clinical profile. After discontinuation of all previous lipid-lowering therapies, all eligible patients started receiving treatment with pitavastatin 1 mg/day on an open-label basis for at least 1 month (run-in period). At the end of the run-in period (week 0), those patients with LDL-C levels below 120 mg/dL, measured by a central laboratory using Friedwald's formula, were eligible for randomization. Patients with prior ACS or coronary revascularization could be randomized beyond 3 months after the index event. Randomization was not allowed for patients with poor adherence (less than 50%) for the study drug during the run-in period or for patients with the primary endpoint events during the run-in period.\nPatients were randomized in a 1:1 ratio to either pitavastatin 4 mg or pitavastatin 1 mg once daily. Randomized treatment assignment was stratified by 5 factors: 1) institution, 2) prior statin use, 3) age (<65 or ≤65), 4) diabetes, and 5) sex. Patients were to be followed for 3 years, and study visits were scheduled at 6 months for the first visit and every year thereafter. At each visit, information on vital signs, clinical endpoints, adverse events, and concurrent medication was collected. In addition, physical examinations and electrocardiograms were performed and blood specimens were collected at 6 months and every 12 months thereafter for lipid and other laboratory tests. […]"}}, "data": [{"smiles": "O=C(O)C[C@H](O)C[C@H](O)/C=C/c1c(C2CC2)nc2ccccc2c1-c1ccc(F)cc1", "note": "[pitavastatin]", "values": [{"measurement": "reduction of LDL-C from baseline", "setting": "[1]", "result": 42.9, "unit": "%"}, {"measurement": "incidence rates of individual CV events: death from any cause, myocardial infarction, and coronary revascularization", "setting": "patients with stable CAD; 1 mg and 4 mg pitavastatin groups, FIG. 8", "result": "positive"}, {"measurement": "LDL-C", "setting": "patients with stable CAD; patients converted from 1 mg dose to 4 mg dose of pitavastatin, FIG. 2", "result": "statistically significant reduction"}, {"measurement": "HDL-C", "setting": "patients with stable CAD; patients converted from 1 mg dose to 4 mg dose of pitavastatin, FIG. 3", "result": "numerically superior increase"}, {"measurement": "TG", "setting": "patients with stable CAD; patients converted from 1 mg dose to 4 mg dose of pitavastatin, FIG. 4", "result": "statistically significant reduction"}, {"measurement": "hs-CGP", "setting": "patients with stable CAD; patients converted from 1 mg dose to 4 mg dose of pitavastatin, FIG. 5", "result": "statistically significant reduction"}, {"measurement": "primary clinical endpoint (composite of CV death, MI, ischemic stroke and UA)", "setting": "patients with stable CAD; patients converted from 1 mg dose to 4 mg dose of pitavastatin, FIG. 6", "result": "statistically significant reduction"}, {"measurement": "secondary clinical endpoint (primary endpoint+coronary revascularization)", "setting": "patients with stable CAD; patients converted from 1 mg dose to 4 mg dose of pitavastatin, FIG. 7", "result": "statistically significant reduction"}, {"measurement": "effect of LDL-C status (≥95 mg/dL or <95 mg/dL) on incidence rates for the primary endpoint", "setting": "patients with stable CAD; subgroup analysis, 1 mg vs 4 mg pitavastatin, FIG. 9", "result": "did not affect the results"}]}]}
